According to PubChem BioAssay AID248 (DTP/NCI, 2004):
Values joined by “and” are separate entries in the source; they are usually repeats but may differ in a detail not shown here. Equal values may be shown once. Inconclusive results and toxic doses are left out. No stated cut-off is given here; in the data, active means T/C of 150% or more; inactive means T/C below 125%.

System: L1210 leukemia ip in BDF1 mice, survival T/C
Assay: NCI In Vivo Anticancer Drug Screen. Data for tumor model L1210 Leukemia (intraperitoneal) in B6D2F1 (BDF1) mice
Conditions: endpoint: mean survival time, higher = longer survival
Outline: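 Transplantable tumor model; survival measured in treated vs vehicle control mice. Value = treated/control.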

[1] = dose: 100.0 mg/kg/injection, schedule: Q04DX002 (ip), vehicle: Klucel (hydroxypropylcellulose) (HPC)
[2] = dose: 400.0 mg/kg/injection, schedule: Q04DX002 (ip), vehicle: Klucel (hydroxypropylcellulose) (HPC)
[3] = dose: 50.0 mg/kg/injection, schedule: Q01DX001 (ip), vehicle: saline
[4] = dose: 100.0 mg/kg/injection, schedule: Q04DX003 (ip), vehicle: saline
[5] = dose: 100.0 mg/kg/injection, schedule: Q01DX001 (ip), vehicle: saline
[6] = dose: 400.0 mg/kg/injection, schedule: Q01DX001 (ip), vehicle: saline
[7] = dose: 200.0 mg/kg/injection, schedule: Q04DX003 (ip), vehicle: saline
[8] = dose: 400.0 mg/kg/injection, schedule: Q04DX003 (ip), vehicle: saline
[9] = dose: 100.0 mg/kg/injection, schedule: Q01DX001 (ip), vehicle: carboxymethylcellulose (CMC)
[10] = dose: 200.0 mg/kg/injection, schedule: Q01DX001 (ip), vehicle: carboxymethylcellulose (CMC)
[11] = dose: 400.0 mg/kg/injection, schedule: Q01DX001 (ip), vehicle: carboxymethylcellulose (CMC)
[12] = dose: 100.0 mg/kg/injection, schedule: Q01DX001 (ip), vehicle: gum acacia
[13] = dose: 100.0 mg/kg/injection, schedule: Q01DX009 (ip), vehicle: gum acacia
[14] = dose: 100.0 mg/kg/injection, schedule: Q04DX003 (ip), vehicle: gum acacia
[15] = dose: 200.0 mg/kg/injection, schedule: Q01DX001 (ip), vehicle: gum acacia
[16] = dose: 200.0 mg/kg/injection, schedule: Q01DX009 (ip), vehicle: gum acacia
[17] = dose: 200.0 mg/kg/injection, schedule: Q04DX003 (ip), vehicle: gum acacia
[18] = dose: 400.0 mg/kg/injection, schedule: Q01DX009 (ip), vehicle: gum acacia
[19] = dose: 400.0 mg/kg/injection, schedule: Q04DX003 (ip), vehicle: gum acacia
[20] = dose: 100.0 mg/kg/injection, schedule: Q04DX003 (ip), vehicle: saline with Tween-80

Measured: T/C

O=C1c2c(c(-c3ccccc3)c3ccccc3c2-c2ccccc2)C(=O)C2C(c3ccccc3)c3ccccc3C(c3ccccc3)C12 (stereo unspecified)
inactive: [1] 113 % of control | dose: 200.0 mg/kg/injection, schedule: Q04DX002 (ip), vehicle: Klucel (hydroxypropylcellulose) (HPC) 106 % of control | [2] 98 % of control

CN(C)CN(C)C
inactive: dose: 25.0 mg/kg/injection, schedule: Q01DX001 (ip), vehicle: saline 98 % of control | dose: 25.0 mg/kg/injection, schedule: Q01DX009 (ip), vehicle: saline 89 % of control | dose: 25.0 mg/kg/injection, schedule: Q04DX003 (ip), vehicle: saline 100 % of control | [3] 102 % of control | dose: 50.0 mg/kg/injection, schedule: Q01DX009 (ip), vehicle: saline 100 % of control | dose: 50.0 mg/kg/injection, schedule: Q04DX003 (ip), vehicle: saline 100 % of control | [4] 102 % of control

CN(C)C(=O)O/N=C(\c1ccccc1)C(F)(F)F
inactive: dose: 0.5 mg/kg/injection, schedule: Q01DX001 (ip), vehicle: saline 103 % of control | dose: 1.0 mg/kg/injection, schedule: Q01DX001 (ip), vehicle: saline 102 % of control | dose: 2.0 mg/kg/injection, schedule: Q01DX001 (ip), vehicle: saline 97 % of control

Cc1ccc([N+](=O)[O-])cc1NC(=O)Oc1ccc2c(C)cc(=O)oc2c1
inactive: [1] 101 % of control | [2] 95 % of control

COc1cccc(/C=N/Nc2nnc(N/N=C/c3cccc(OC)c3OC)c3ccccc23)c1OC
inactive: [3] 92 % of control | [5] 92 % of control | dose: 200.0 mg/kg/injection, schedule: Q01DX001 (ip), vehicle: saline 92 % of control | [6] 94 % of control

O=P(OCCCl)(OCCCl)OCCCl
inactive: [4] 102 % of control | [7] 102 % of control | [8] 103 % of control

OCC1OC(Oc2cc(O)cc3[o+]c(-c4cc(O)c(O)c(O)c4)c(OC4(CO)OC(CO)C(O)C4O)cc23)C(O)C(O)C1O (stereo unspecified)
inactive: [9] 95 % of control | [10] 98 % of control | [11] 98 % of control

CC(C)(C)C1C(=O)N1C(C)(C)C (stereo unspecified)
inactive: dose: 100.0 mg/kg/injection, schedule: Q01DX009 (ip), vehicle: Klucel (hydroxypropylcellulose) (HPC) 103 % of control | dose: 100.0 mg/kg/injection, schedule: Q04DX003 (ip), vehicle: Klucel (hydroxypropylcellulose) (HPC) 101 % of control | dose: 200.0 mg/kg/injection, schedule: Q01DX009 (ip), vehicle: Klucel (hydroxypropylcellulose) (HPC) 101 % of control | dose: 200.0 mg/kg/injection, schedule: Q04DX003 (ip), vehicle: Klucel (hydroxypropylcellulose) (HPC) 97 % of control | dose: 400.0 mg/kg/injection, schedule: Q04DX003 (ip), vehicle: Klucel (hydroxypropylcellulose) (HPC) 97 % of control

C=CCNC(=S)NNC(=O)CCCC(=O)NNC(=S)NCC=C
inactive: [3] 90 % of control | [5] 93 % of control | [6] 102 % of control

CC1CCCCN1C(=O)Nc1cccc(C(F)(F)F)c1 (stereo unspecified)
inactive: [12] 100 % of control and 103 % of control | [13] 107 % of control | dose: 100.0 mg/kg/injection, schedule: Q04DX002 (ip), vehicle: gum acacia 93 % of control | [14] 100 % of control and 101 % of control | [15] 95 % of control and 105 % of control | [16] 106 % of control | dose: 200.0 mg/kg/injection, schedule: Q04DX002 (ip), vehicle: gum acacia 96 % of control and 98 % of control | [17] 95 % of control | dose: 400.0 mg/kg/injection, schedule: Q01DX001 (ip), vehicle: gum acacia 92 % of control and 102 % of control | [18] 102 % of control | dose: 400.0 mg/kg/injection, schedule: Q04DX002 (ip), vehicle: gum acacia 93 % of control and 86 % of control | [19] 98 % of control and 100 % of control

CCOC(=O)C(O)(CC)c1ccncc1C (stereo unspecified)
inactive: [4] 96 % of control | [7] 98 % of control | [8] 100 % of control

O=C(O)CCSSc1ccc([N+](=O)[O-])cc1[N+](=O)[O-]
inactive: dose: 12.5 mg/kg/injection, schedule: Q01DX009 (ip), vehicle: Klucel (hydroxypropylcellulose) (HPC) 96 % of control | dose: 12.5 mg/kg/injection, schedule: Q04DX003 (ip), vehicle: Klucel (hydroxypropylcellulose) (HPC) 98 % of control | dose: 25.0 mg/kg/injection, schedule: Q01DX009 (ip), vehicle: Klucel (hydroxypropylcellulose) (HPC) 99 % of control | dose: 25.0 mg/kg/injection, schedule: Q04DX003 (ip), vehicle: Klucel (hydroxypropylcellulose) (HPC) 107 % of control | dose: 50.0 mg/kg/injection, schedule: Q04DX003 (ip), vehicle: Klucel (hydroxypropylcellulose) (HPC) 105 % of control

CC(=O)N1Cc2ccc(C=O)n2Cc2cc3c(cc21)OCO3
inactive: dose: 25.0 mg/kg/injection, schedule: Q04DX002 (ip), vehicle: Klucel (hydroxypropylcellulose) (HPC) 96 % of control | dose: 50.0 mg/kg/injection, schedule: Q04DX002 (ip), vehicle: Klucel (hydroxypropylcellulose) (HPC) 104 % of control | [1] 110 % of control

CC(=O)Nc1ncnc2c1ncn2Cc1ccccc1
inactive: [20] 99 % of control | dose: 200.0 mg/kg/injection, schedule: Q04DX003 (ip), vehicle: saline with Tween-80 93 % of control

CCCCCCCC/C=C\CCCCCCCC(=O)[O][Sn]([CH2]CCC)([CH2]CCC)[O]C(=O)CCCCCCC/C=C\CCCCCCCC
inactive: dose: 1.56 mg/kg/injection, schedule: Q01DX009 (ip), vehicle: Klucel (hydroxypropylcellulose) (HPC) 109 % of control | dose: 3.12 mg/kg/injection, schedule: Q01DX009 (ip), vehicle: Klucel (hydroxypropylcellulose) (HPC) 98 % of control | dose: 6.25 mg/kg/injection, schedule: Q01DX009 (ip), vehicle: Klucel (hydroxypropylcellulose) (HPC) 106 % of control

Nc1ccc2c(c1)C(O)c1cc(N)c(Br)cc1-2 (stereo unspecified)
inactive: [9] 103 % of control | [10] 110 % of control | [11] 103 % of control

c1ccc2c(c1)Cc1cc3ccccc3cc1-2
inactive: dose: 50.0 mg/kg/injection, schedule: Q01DX001 (ip), vehicle: gum acacia 94 % of control | [12] 95 % of control | [15] 94 % of control

O=Cc1[nH]c(=S)[nH]c(=O)c1Cc1ccc2ccccc2c1
inactive: dose: 100.0 mg/kg/injection, schedule: Q01DX001 (ip), vehicle: saline with Tween-80 104 % of control | dose: 200.0 mg/kg/injection, schedule: Q01DX001 (ip), vehicle: saline with Tween-80 104 % of control

CN(CCS)Cc1ccccc1
inactive: dose: 25.0 mg/kg/injection, schedule: Q01DX009 (ip), vehicle: saline with Tween-80 97 % of control | dose: 25.0 mg/kg/injection, schedule: Q04DX003 (ip), vehicle: saline with Tween-80 95 % of control | dose: 50.0 mg/kg/injection, schedule: Q01DX009 (ip), vehicle: saline with Tween-80 99 % of control | dose: 50.0 mg/kg/injection, schedule: Q04DX003 (ip), vehicle: saline with Tween-80 106 % of control | dose: 100.0 mg/kg/injection, schedule: Q01DX009 (ip), vehicle: saline with Tween-80 103 % of control | [20] 97 % of control and 102 % of control

COc1cccc(CNc2ccc(C)c(Cl)c2)c1OC
inactive: [13] 99 % of control | [14] 104 % of control | [16] 108 % of control | [17] 97 % of control | [18] 87 % of control | [19] 90 % of control
